Experiments:
Format in all cases: functional
[1] = test system: Cavia porcellus; assay: Antipruritic activity in Cavia porcellus (guinea pig) histamine phosphate-induced itching model assessed as increase of total amount of histamine phosphate level at 50 mg/kg, administered 1 hr before histamine phosphate challenge with food relative to control
[2] = test system: Cavia porcellus; assay: Antipruritic activity in Cavia porcellus (guinea pig) histamine phosphate-induced itching model assessed as increase of total amount of histamine phosphate level at 50 mg/kg, administered 1 hr before histamine phosphate challenge with food relative to levocetirizine
[3] = test system: Cavia porcellus; assay: Antiasthmatic activity in Cavia porcellus (guinea pig) histamine phosphate-induced asthmatic model assessed as latent period of asthma at 50 mg/kg, administered 1 hr before histamine phosphate challenge with food (reference value: 115.4 +/- 126.2 /s)

| SMILES | Activity [1] [%] | Activity [2] [%] | Time [3] [s] |
| --- | --- | --- | --- |
| Cc1cc(C)nc(NS(=O)(=O)c2ccc(NCCN3CCN([C@H](c4ccccc4)c4ccc(Cl)cc4)CC3)cc2)n1 | 92.07 | -60.28 | 167.4 |
| Nc1ccc(S(=O)(=O)NCCN2CCN([C@H](c3ccccc3)c3ccc(Cl)cc3)CC2)cc1 | 395.87 | 2.55 | 266.2 |
| O=S(=O)(Nc1ncccn1)c1ccc(NCCN2CCN([C@H](c3ccccc3)c3ccc(Cl)cc3)CC2)cc1 | 1436.72 | 217.8 | 246.4 |
| COc1ccc(N(CCN2CCN([C@H](c3ccccc3)c3ccc(Cl)cc3)CC2)S(=O)(=O)c2ccc(N)cc2)nn1 | 686.34 | 62.62 | 288 |
| COc1ccc(NS(=O)(=O)c2ccc(NCCN3CCN([C@H](c4ccccc4)c4ccc(Cl)cc4)CC3)cc2)nn1 | 279.65 | -21.49 | 360 |
| Nc1ccc(S(=O)(=O)N(CCCN2CCN([C@H](c3ccccc3)c3ccc(Cl)cc3)CC2)c2ccc(Cl)nn2)cc1 | 432.37 | 10.1 | 301.8 |
| O=S(=O)(Nc1ccc(Cl)nn1)c1ccc(NCCCN2CCN([C@H](c3ccccc3)c3ccc(Cl)cc3)CC2)cc1 | 783.62 | 82.74 | 184.1 |
| Nc1ccc(S(=O)(=O)N(CCCN2CCN([C@H](c3ccccc3)c3ccc(Cl)cc3)CC2)c2nccs2)cc1 | 395.34 | 2.44 | 240.3 |
| O=S(=O)(Nc1nccs1)c1ccc(NCCCN2CCN([C@H](c3ccccc3)c3ccc(Cl)cc3)CC2)cc1 | 296.34 | -18.04 | 324.8 |
| Cc1cc(C)nc(NS(=O)(=O)c2ccc(NCCCN3CCN([C@H](c4ccccc4)c4ccc(Cl)cc4)CC3)cc2)n1 | 382.83 | -0.15 | 136.8 |
| Nc1ccc(S(=O)(=O)NCCCN2CCN([C@H](c3ccccc3)c3ccc(Cl)cc3)CC2)cc1 | 901.67 | 107.15 | 269.4 |
| O=S(=O)(Nc1ncccn1)c1ccc(NCCCN2CCN([C@H](c3ccccc3)c3ccc(Cl)cc3)CC2)cc1 | 576.61 | 39.93 | 229.2 |
| COc1ccc(NS(=O)(=O)c2ccc(NCCCN3CCN([C@H](c4ccccc4)c4ccc(Cl)cc4)CC3)cc2)nn1 | 593.5 | 43.42 | 295.6 |
| O=C(O)CNCCCN1CCN([C@H](c2ccccc2)c2ccc(Cl)cc2)CC1 | 493.36 | 22.71 | 360 |
| C[C@H](NCCCN1CCN([C@H](c2ccccc2)c2ccc(Cl)cc2)CC1)C(=O)O | 933.8 | 113.8 | 307.6 |
| Nc1ccc(S(=O)(=O)N(CCN2CCN([C@H](c3ccccc3)c3ccc(Cl)cc3)CC2)c2ccc(Cl)nn2)cc1 | 6.4 | -78 | 151.2 |
| O=S(=O)(Nc1ccc(Cl)nn1)c1ccc(NCCN2CCN([C@H](c3ccccc3)c3ccc(Cl)cc3)CC2)cc1 | 883.81 | 103.46 | 255.5 |
| Nc1ccc(S(=O)(=O)N(CCN2CCN([C@H](c3ccccc3)c3ccc(Cl)cc3)CC2)c2nccs2)cc1 | 429.01 | 9.4 | 184.8 |
| O=S(=O)(Nc1nccs1)c1ccc(NCCN2CCN([C@H](c3ccccc3)c3ccc(Cl)cc3)CC2)cc1 | 292.61 | -18.8 | 360 |
